Like-named read-outs stand apart in the source and are kept apart here.
Experiments:
[1] = target: Kordia algicida HPPD "SEQ ID No. 5" (Kordia algicida, UniProt A9DQF2); assay: biochemical; settings: for inhibition at 5 µM: read-out: percentage of inhibition compared to the activity in absence of the inhibitor
wild type tobacco plants = assay: Glasshouse response to bicyclopyrone, injury classes; type: in vivo, Nicotiana tabacum; settings: 100 g AI/ha, 7 DAT; WT
Description: (§1) Seeds of wild type tobacco plants and T1 tobacco plants carrying the gene from Kordia algicida FMP27e coding for HPPD were sown on MS media (Murashige and Skoog 1964) supplemented with […] kanamycin. After 4 weeks, rooted green plantlets were transferred to soil and grown for 3 weeks in the glasshouse as described above then sprayed with a mixture containing bicyclopyrone (100 g AI/ha), ammonium sulfate and methyl ester raps oil. The plants were classified in two categories based on the phenotype developed in response to the herbicide seven days after the treatment. […] In this case, only plants containing at least one T-DNA were exposed to the herbicidal treatment.

[2] = system: T1 tobacco plants carrying FMP27e; assay: as above; type: in vivo, Nicotiana tabacum; settings: 100 g AI/ha, 7 DAT
Description: as §1

[3] = system: tobacco leaf disks containing SEQ ID No. 7 (Kordia algicida HPPD); assay: Leaf disk regeneration on HPPD inhibitor media; type: cell-based, Nicotiana tabacum; settings: 6 weeks
Protocol: (§2) At the end of the experiments the level of regeneration was evaluated as followed:
(§3) “−” means that the leaf disks looked the same as leaf disk from wild type tobacco plants on media supplemented with the inhibitor mentioned above.
(§4) “++++” means that the leaf disks looked like the leaf disks from the wild type tobacco plants on media without inhibitor.
(§5) “+”, “++”, and “+++” indicate regenerated leaf disks were heavily (+), medium (++) and less (+++) affected by the presence of the inhibitors.

[4] = system: tobacco leaf disks containing SEQ ID No. 11 (Arabidopsis HPPD); assay: Leaf disk regeneration on HPPD inhibitor media; type: cell-based, Nicotiana tabacum; settings: 6 weeks
Protocol: as §2, §3, §4, §5

[5] = target: Kordia algicida HPPD "SEQ ID No. 5" (FMP27e) (Kordia algicida, UniProt A9DQF2); assay: HPLC assay of HPPD in vitro kinetic properties; type: biochemical
Protocol: (§6) Km, Vmax, and kcat values for different HPPD enzyme preparations and Ki, K1=Kon, and K−1=Koff for different HPPD inhibitors were determined using a HPLC assay for measurements of HPPD activity. […] All assays were started by the addition of HPPD enzyme to the assay mixture and stopped at a series of times between 0 and 240 s by addition of 200 μl of the reaction mixture to reaction assay tubes containing 20 μl 10% perchloric acid. Precipitated protein was pelleted by a 5 minute centrifugation at 10,000 g.
(§7) For Km and Vmax value determinations the initial rates of the HPPD reaction at different substrate concentrations were determined from plots of HGA formed versus time and fitted to the Michaelis-Menten equation for unireactant enzymes using the ID Business Solutions Ltd. (idbs.com) XLfit software suite.

[6] = system: tobacco plants containing FMP27t-h, PAT and 2mEPSPS (pFCO116); assay: Glasshouse response of three-tolerance-gene tobacco to herbicides, injury classes; type: in vivo, Nicotiana tobacum; settings: 9 DAT
Protocol: A binary vector for tobacco transformation is, for example, constructed with the CaMV35 promoter driving the expression of the gene FMP27t-h (SEQ ID No. 15), with a codon usage optimized for the expression in dicotyledoneous plants and at its 5′extremity was added a sequence coding for an OTP, and further upstream a sequence TEV (Tobacco etch virus) to improve the stability of the mRNA in plants followed by the CaMV35S terminator. The nucleotide sequence of the gene FMP27t-h is given in SEQ ID No. 15. Additionally, the transformation vector also contains a PAT gene cassette in which the gene is driven by a CaVM35S promoter and followed by a CaMV35S terminator for glufosinate based selection during the transformation process and a 2mEPSPS gene cassette in which the gene is driven by an histone promoter from Arabidopsis to confer tolerance to the herbicide glyphosate to the transformed plants (see FIG. 3 H). The binary vector was called pFCO116. The above vector was used to transform leaf disc obtained from Nicotiana tobacum plants, according to Example 3.
Transgenic tobacco plants were transferred to the greenhouse and treated with glyphosate at a rate of 1121 g AI/ha. Seeds were produced from such tolerant tobacco plants and harvested. These seeds were put on soil to germinate in the glasshouse. Three to four weeks later, 50 plantlets per event were transferred to single pots. Two weeks later, plants of a size 4-6 cm were sprayed either with
[…] […] Non-transgenic tobacco plants were completely killed by treatment using one or more of the above herbicides.

[7] = target: T1, Arabidopsis thaliana HPPD "SEQ ID No. 10" (Arabidopsis thaliana, UniProt P93836); assay: HPLC assay of HPPD in vitro kinetic properties; type: biochemical; settings: substrate HPP varied 10-400 μM; enzyme SEQ ID No. 10
T1 construct: made in house; host or cells: E. coli K-12 BL21 (pQE30-AtHPPD)
T1 sequence (P93836 with tags, fused parts or gaps): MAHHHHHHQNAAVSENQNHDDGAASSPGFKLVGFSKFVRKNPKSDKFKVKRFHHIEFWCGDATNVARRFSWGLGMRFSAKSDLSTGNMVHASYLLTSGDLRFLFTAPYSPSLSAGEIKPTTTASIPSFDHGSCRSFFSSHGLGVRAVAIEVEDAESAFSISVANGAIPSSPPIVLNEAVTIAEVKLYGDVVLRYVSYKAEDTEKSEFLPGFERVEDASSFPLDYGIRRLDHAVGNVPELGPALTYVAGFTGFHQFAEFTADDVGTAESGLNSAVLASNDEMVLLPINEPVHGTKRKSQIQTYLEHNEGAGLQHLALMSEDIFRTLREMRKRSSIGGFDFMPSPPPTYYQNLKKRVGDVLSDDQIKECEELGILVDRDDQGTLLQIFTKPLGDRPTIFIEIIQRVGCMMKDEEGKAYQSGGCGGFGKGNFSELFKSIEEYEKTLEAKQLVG
Protocol: as §6, §7

[8] = target: T1, Arabidopsis thaliana HPPD "SEQ ID No. 10"; assay: HPPD activity in presence of HPPD inhibitors (pI50, % inhibition); type: biochemical
[9] = 5.0 × 10^−6M inhibitor, enzyme SEQ ID No. 5
[10] = substrate HPP varied 10-400 μM, enzyme SEQ ID No. 5

Chain of Kordia algicida HPPD "SEQ ID No. 5" (FMP27e) (A9DQF2 entry or part of it): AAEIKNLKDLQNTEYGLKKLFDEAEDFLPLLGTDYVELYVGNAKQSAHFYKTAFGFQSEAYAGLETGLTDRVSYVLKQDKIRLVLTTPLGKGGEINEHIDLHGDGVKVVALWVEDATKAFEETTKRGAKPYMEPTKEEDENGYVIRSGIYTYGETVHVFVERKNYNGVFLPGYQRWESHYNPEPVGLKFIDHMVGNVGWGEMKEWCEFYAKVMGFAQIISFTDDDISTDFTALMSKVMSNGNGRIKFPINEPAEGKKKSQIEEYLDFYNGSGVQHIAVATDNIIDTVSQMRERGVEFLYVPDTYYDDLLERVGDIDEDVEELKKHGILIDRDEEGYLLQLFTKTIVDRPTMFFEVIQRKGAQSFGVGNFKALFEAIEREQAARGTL
Chain of Kordia algicida HPPD "SEQ ID No. 5" (A9DQF2 entry or part of it): as above

Cc1ccc(C(=O)COc2c(C(=O)c3ccc(Cl)c(C)c3Cl)c(C)nn2C)cc1 [Benzofenap] showed an inhibition at 5 µM [1, 9] of 97% and an IC50 ([1]; read-out: pI50 (converted)) of under 2.51 µM.
With COCCOCc1nc(C(F)(F)F)ccc1C(=O)C1=C(O)C2CCC(C2)C1=O (centres unmarked) [Bicyclopyrone, 4-hydroxy-3-[[2-[(2-methoxyethoxy)methyl]-6-(trifluoromethyl)-3-pyridinyl]carbonyl]bicyclo[3.2.1]oct-3-en-2-one] the IC50 ([1]; read-out: pI50 (converted)) was 10 µM, the inhibition at 5 µM [1] was 38% and the “% of tolerant plant” value (wild type tobacco plants) was 0%. The “Class I, number of plants (injury: 0-30%)” value (“Class I … (injury: 0-30%)” for short) (wild type tobacco plants) was 0, the “Class II, number of plants (injury: 31-100%)” value (“Class II … (injury: 31-100%)” for short) (wild type tobacco plants) was 12 and the “% of tolerant plant” value ([2]; line 121) was 39%. For the same molecule, the “Class I … (injury: 0-30%)” value ([2]; line 121) was 90, the “Class II … (injury: 31-100%)” value ([2]; line 121) was 138 and the “% of tolerant plant” value ([2]; line 129) was 30%. The “Class I … (injury: 0-30%)” value ([2]; line 129) was 47, the “Class II … (injury: 31-100%)” value ([2]; line 129) was 111 and the “% of tolerant plant” value ([2]; line 218) was 64%. The “Class I … (injury: 0-30%)” value ([2]; line 218) was 100, the “Class II … (injury: 31-100%)” value ([2]; line 218) was 56 and the “level of leaf disk regeneration” value ([3]; inhibitor 10^−6 M) was “++”. The “level of leaf disk regeneration” value ([4]; inhibitor 10^−6 M) was “−”.
CS(=O)(=O)c1cc(C(F)(F)F)ccc1C(=O)C(C#N)C(=O)C1CC1 (centres unmarked) [Diketonitrile, 2-cyano-3-cyclopropyl-1-(2-methylsulphonyl-4-trifluoromethylphenyl)-propane-1,3-dione] was tested, and the inhibition at 5 µM [1, 9] was 80%, the IC50 ([1]; read-out: pI50 (converted)) was 2 µM and the Ki ([5]; read-out: Ki) was 15 µM. For the same molecule, the “level of leaf disk regeneration” value ([3]; diketonitrile 5.10^−6 M) was “+” and the “level of leaf disk regeneration” value ([4]; diketonitrile 5.10^−6 M) was “−”.
CP(=O)(O)CCC(N)C(=O)O (centres unmarked) [Glufosinate-ammonium] was tested, and the “Class I, number of plants (no injuries)” value ([6]; 1000 g AI/ha, line 639) was 10, the “Class II, number of plants (injury: 10-40%)” value (“Class II … (injury: 10-40%)” below) ([6]; 1000 g AI/ha, line 639) was 0 and the “Class III, number of plants (injury: 41-100%)” value (“Class III … (injury: 41-100%)” below) ([6]; 1000 g AI/ha, line 639) was 0. The “Class I, number of plants (no injuries)” value ([6]; 1000 g AI/ha, line 714) was 10, the “Class II … (injury: 10-40%)” value ([6]; 1000 g AI/ha, line 714) was 0 and the “Class III … (injury: 41-100%)” value ([6]; 1000 g AI/ha, line 714) was 0. For the same molecule, the “Class I, number of plants (no injuries)” value ([6]; 1000 g AI/ha, line 717) was 10, the “Class II … (injury: 10-40%)” value ([6]; 1000 g AI/ha, line 717) was 0 and the “Class III … (injury: 41-100%)” value ([6]; 1000 g AI/ha, line 717) was 0.
In the case of O=C(O)CNCP(=O)(O)O [Glyphosate], the “Class I, number of plants (no injuries)” value ([6]; 1121 g AI/ha, line 639) is reported as 9, the “Class II … (injury: 10-40%)” value ([6]; 1121 g AI/ha, line 639) is reported as 0 and the “Class III … (injury: 41-100%)” value ([6]; 1121 g AI/ha, line 639) is reported as 1. For the same molecule, the “Class I, number of plants (no injuries)” value ([6]; 1121 g AI/ha, line 714) was 10, the “Class II … (injury: 10-40%)” value ([6]; 1121 g AI/ha, line 714) was 0 and the “Class III … (injury: 41-100%)” value ([6]; 1121 g AI/ha, line 714) was 0. For the same molecule, the “Class I, number of plants (no injuries)” value ([6]; 1121 g AI/ha, line 717) was 10, the “Class II … (injury: 10-40%)” value ([6]; 1121 g AI/ha, line 717) was 0 and the “Class III … (injury: 41-100%)” value ([6]; 1121 g AI/ha, line 717) was 0.
O=C(O)C(=O)Cc1ccc(O)cc1 [HPP, para-hydroxyphenylpyruvate] gave a Km [5, 10] of 292 µM, a Vmax [5, 10] of 13.6 µM and a Km [7] of 6.3 µM. The Vmax [7] was 1.2 µM.
With CS(=O)(=O)c1ccc(C(=O)C2C(=O)CCCC2=O)c([N+](=O)[O-])c1 [Mesotrione, 2-[4-(methylsulfonyl)-2-nitrobenzoyl]-1,3-cyclohexanedione] the “level of leaf disk regeneration” value ([3]; inhibitor 10^−6 M) was “+” and the “level of leaf disk regeneration” value ([4]; inhibitor 10^−6 M) was “−”.
Cc1nn(C)c(O)c1C(=O)c1ccc(C(F)(F)F)cc1S(C)(=O)=O [Pyrasulfotole] was tested, and the IC50 [1] was 12.6 µM, the inhibition at 5 µM [1] was 43% and the IC50 [8] was 3.98 µM. For the same molecule, the inhibition at 5 µM ([8]; read-out: percentage of inhibition compared to the activity in absence of the inhibitor) was 69%.
In the case of CS(=O)(=O)c1ccc(C(=O)C2C(=O)CCCC2=O)c(Cl)c1COCC1CCCO1 (centres unmarked) [Tefuryltrione, 2-[2-chloro-4-(methylsulfonyl)-3-[[(tetrahydro-2-furanyl)methoxy]methyl]benzoyl]-1,3-cyclohexanedione], the inhibition at 5 µM [1, 9] is reported as 73% and the IC50 ([1]; read-out: pI50 (converted)) is reported as 1.58 µM.
